25 molecules from patent US7528113B2, “Method and composition for the treatment of adenoviral ocular infections” (priority 1999, dated 2009) can be followed below.

Assay [1] has as its system Ad37 binding to Chang C conjunctival cells. In words: microbe, parasite or virus in culture. Conditions: for Interference with the binding of Ad37 to sialic acid expressing cells: 160 mmol concentrations. Format: cell-based, adenovirus. The source says:
(§1) Interference of the binding of adenovirus subtype 37 (Ad37) with the first step cellular receptor was studied using dextran sulphate and glycosaminoglycans, such as heparin and heparan sulphates. […] It was thus confirmed that the cellular receptor for Ad37 is (2-3) linked sialic acid.
The effect of glycoproteins to inhibit Ad37 binding to Chang C conjunctival cells was investigated using the following glycoproteins: fetuin, mucin, orosomucoid and glycophorin A. The results are presented in table 2.
The inventors confirmed the inventive concept by determining the inhibition achieved with different carbohydrates, using adenovirus type 37 and Chang C conjunctival cells.
All data are visualised as the dose required for 50% inhibition of adenovirus binding and the maximum inhibition of adenovirus binding.

Assay [2] deals with adenovirus type 8 binding to Chang C conjunctival cells. Briefly: Inhibition of adenovirus type 8 binding to Chang C conjunctival cells. Format: cell-based.
For assay [3], the system named is adenovirus type 19a binding to Chang C conjunctival cells. Briefly: Inhibition of adenovirus type 19a binding to Chang C conjunctival cells. The assay is classed as cell-based.
The test system of assay [4] is adenovirus subtype 37 (Ad37). In words: Interference of the binding of Ad37 with the first step cellular receptor. Format: cell-based.
Description: as §1

For a further assay, the system named is Ad37 virus. Briefly: Binding of 125I-labeled Ad37 to glycosphingolipids. Also noted: species or system adenovirus. Conditions: preliminary results, thin layer chromatography, FIG. 3.
In assay [5] the test system is Ad37 binding to Chinese hamster ovary cells. In words: Ad37 binding to Chinese hamster ovary cells that do not express CAR. The assay is classed as cell-based, adenovirus. The note with it: Chinese hamster ovary cells not expressing CAR; see FIG. 2.
Description: as §1

Assay [6] has as its system Ad37 binding to human epithelial A549 cells. In words: Ad37 binding to A549 cells. Format: cell-based, adenovirus. Conditions: pre-treatment / pre-incubation of the cells; FIG. 2. The source says:
Binding to human epithelial A549 cells was investigated. […] This means that Ad8, Ad19a and Ad37, but not types 9 and 19p infect A549 cells by binding to cell surface sialic acid.

The next assay concerns adenoviral adhesion. Briefly: Inhibition of adenoviral adhesion by multivalent ligands. Conditions: multivalent ligand. Format: cell-based, adenovirus. The source says: Monovalent analogues of the sialic acid receptor will have to cover most of the twelve fibres at each of the twelve comers of the virus particle to enable efficient blocking of the binding of the virus particle to the host cell receptors. Divalent or multivalent analogues will, by interacting with a few fibres, enable aggregation of numerous virus particles into a lattice. This will hamper or inhibit virus infection with a higher efficiency, i.e. more inhibition per μmole of ligand.

Setting [7] is: Chang cells, sialylated glycoproteins, read-out: Concentration of glycoprotein causing 50% inhibition of Ad37 binding.
Setting [8] is: Chang cells, sialic acid carbohydrates, read-out: Concentration of carbohydrate causing 50% inhibition of Ad37 binding.
[9] abbreviates: read-out: Concentration of carbohydrate causing 50% inhibition of Ad37 binding.

Read-outs that look alike come from different tables or passages of the source.

For Fetuin: sialylated glycoprotein, the “Maximal inhibition of Ad37 binding in %” value in assay [1] (500 μM glycoprotein) is 62%. The IC50 in assay [1] (setting [7]) worked out at 420 µM. On to heparin, for which the “Maximal inhibition of binding in %” value in assay [2] (adenovirus type 8, 670 μM heparin) is 92%; in assay [3] (670 μM heparin), 90%; in assay [1] (adenovirus type 37, 670 μM heparin), 87%. Moreover, the IC50 in assay [2] (adenovirus type 8, Chang C conjunctival cells, read-out: Concentration of heparin causing 50% inhibition of binding) stood at 30 µM; in assay [3] (Chang C conjunctival cells, read-out: Concentration of heparin causing 50% inhibition of binding), 25 µM; in assay [1] (adenovirus type 37, Chang C conjunctival cells, read-out: Concentration of heparin causing 50% inhibition of binding), 20 µM. For the same molecule, the “Impairment of Ad37 binding by negatively charged molecules” value (shortened to “Impairment of Ad37 binding”) in assay [4] is reported as “could impair binding of the virus”.

Consider `CC(=O)N[C@@H]1[C@@H](O)[C@H](O)[C@@H](CO)O[C@H]1O` [acetyl glucose amine, reference compound], for which the “Interference with the binding of Ad37 to sialic acid expressing cells” value (“Interference with the binding of Ad37” below) in assay [1] is “did not interfere with the binding”.

On to “GalNAcβ4(NeuAcα8NeuAcα3)Galβ4Glcβ1 [NeuAc-GD2]”, for which the “Ad37 virus binding to the structure” value in the assay on Ad37 virus is “effective for Ad37 virus binding”.

Regarding “NeuAcα3Galβ3GalNAcβ4(NeuAcα3)Galβ4Glcβ1 [NeuAc-GD1a]”, the “Ad37 virus binding to the structure” value in the assay with Ad37 virus was “effective for Ad37 virus binding”.

Colominic acid: the “Inhibiting binding of Ad37 to sialic acid-expressing cells (in words)” value (“Inhibiting binding of Ad37” below) in assay [1] is “effective in inhibiting binding”. In addition, the “Maximal inhibition of Ad37 binding in %” value in assay [1] (160 mM carbohydrate) came out at 79%. With `CC(=O)N[C@H]1[C@H]([C@H](O)[C@H](O)CO)O[C@@](OC[C@H]2O[C@@H](O[C@H]3[C@H](O)[C@@H](NC(C)=O)C(O)O[C@@H]3CO)[C@H](O)[C@@H](O)[C@H]2O)(C(=O)O)C[C@@H]1O` (stereo partly drawn) [α-Neu-5Ac-(2-6)-β-D-Gal-(1-4)-D-GlcNAc], in assay [1], the “Inhibiting binding of Ad37” value is on record as “effective in inhibiting binding”. In assay [1] (setting [8]), the IC50 came to 7000 µM. In the case of wheat germ agglutinin, the “Inhibition/blocking of Ad37 binding” value in assay [5] was “blocked the binding”. Further, the “Inhibition of Ad37 binding to A549 cells” value in assay [6] is “is inhibited”. As for Mucin, the “Maximal inhibition of Ad37 binding in %” value in assay [1] (500 μM glycoprotein) worked out at 89%. Moreover, the IC50 in assay [1] (setting [7]) came out at 8 µM. Further, the Inhibiting adenoviral adhesion result in the assay on adenoviral adhesion is “very effective”. Regarding `O=C(CO)N[C@H]1[C@H]([C@H](O)[C@H](O)CO)OC(O)(C(=O)O)C[C@@H]1O` (stereo partly drawn) [N-glycolyl-neuraminic acid], in assay [1], the “Inhibiting binding of Ad37” value is “effective in inhibiting binding”. In addition, the “Maximal inhibition of Ad37 binding in %” value in assay [1] (160 mM carbohydrate) stood at 91%. Also, the IC50 in assay [1] (setting [9]) is 40000 µM. Consider `CC(=O)N[C@@H]1[C@@H](O)[C@@H](O)[C@@H](CO)O[C@@H]1O` [acetyl galactose amine, reference compound], for which the “Interference with the binding of Ad37” value in assay [1] was “did not interfere with the binding”. Consider `CC(=O)N[C@H]1[C@H]([C@H](O)[C@H](O)CO)O[C@@](O[C@H]2[C@@H](O)[C@@H](CO)O[C@@H](O[C@H]3[C@H](O[C@@H]4O[C@@H](C)[C@@H](O)[C@@H](O)[C@@H]4O)[C@@H](O)C(O)O[C@@H]3CO)[C@@H]2O)(C(=O)O)C[C@@H]1O` (stereo partly drawn) [N-Acetyl Neuraminyl-3-Fucosyl Lactose, α-Neu-5-Ac-(2-3)-β-D-Gal(1-4)-(α-Fuc-(1-3))-Glc], for which, in assay [1], the “Inhibiting binding of Ad37” value is on record as “effective in inhibiting binding”. Moreover, the IC50 in assay [1] (setting [8]) amounted to 5000 µM. For `CC(=O)N[C@H]1[C@H]([C@H](O)[C@H](O)CO)O[C@@](O[C@H]2[C@@H](O)[C@@H](CO)O[C@@H](O[C@H]3[C@H](O)[C@@H](NC(C)=O)C(O)O[C@@H]3CO)[C@@H]2O)(C(=O)O)C[C@@H]1O` (stereo partly drawn) [α-NeuNAc-(2-3)-β-D-Gal-(1-4)-D-GlcNAc] the same measures were “effective in inhibiting binding” and 5000 µM. In the case of heparan sulphates, the “Impairment of Ad37 binding” value in assay [4] is “could impair binding of the virus”.

`CC(=O)NC1C(O)CC(OC2C(O)C(CO)OC(OC3C(O)C(CO)OC(O)C3NC(C)=O)C2O)(C(=O)O)OC1C(O)C(O)CO` [α-NeuAc-(2-3)-β-D-Gal-(1-3)-β-GalNAc]: the “Ad37 virus binding to the structure” value in the assay on Ad37 virus was “effective for Ad37 virus binding”. For the molecule GalNAcβ4(NeuAcα3)Galβ4Glcβ1 [NeuAcGM2], the “Ad37 virus binding to the structure” value with Ad37 virus was “effective for Ad37 virus binding”.

As for `CC(=O)N[C@H]1[C@H]([C@H](O)[C@H](O)CO)OC(O)(C(=O)O)C[C@@H]1O` (stereo partly drawn) [N-acetyl-neuraminic acid], the “Inhibiting binding of Ad37” value in assay [1] was “effective in inhibiting binding”. Further, the “Maximal inhibition of Ad37 binding in %” value in assay [1] (160 mM carbohydrate) was 82%. In addition, the IC50 in assay [1] (setting [9]) was found to be 18000 µM. Turning to “Galβ3GalNAcβ4(NeuAcα8NeuAcα3)Galβ4Glcβ1 [NeuAc-GD1b]”, the “Ad37 virus binding to the structure” value with Ad37 virus is recorded as “effective for Ad37 virus binding”.

Take `CC(=O)N[C@H]1[C@@H](O)[C@H](O)[C@@H](CO)O[C@@H]1O` [acetyl mannose amine, reference compound]: the “Interference with the binding of Ad37” value in assay [1] is on record as “did not interfere with the binding”. Still for that read-out and setting: with `OC[C@H]1O[C@@H](O[C@H]2[C@H](O)[C@@H](O)C(O)O[C@@H]2CO)[C@H](O)[C@@H](O)[C@H]1O` (stereo partly drawn) [lactose, reference compound] the entry was “did not interfere with the binding”. Regarding dextran sulphate, the “Impairment of Ad37 binding” value in assay [4] is “could impair binding of the virus”. As to N-acetyl-neuraminyllactose, the “Inhibiting binding of Ad37” value in assay [1] was “effective in inhibiting binding”. In addition, the “Maximal inhibition of Ad37 binding in %” value in assay [1] (160 mM carbohydrate) turned out to be 95%. For the same molecule, the “Inhibition of Ad37 binding (in words)” value in assay [1] (160 mM concentration) is recorded as “almost total inhibition”. For the same molecule, in assay [1] (setting [8]), the IC50 came out at 5000 µM. Consider `O=C[C@H](O)[C@@H](O)[C@@H](O)[C@H](O)CO` [galactose, reference compound], for which the “Interference with the binding of Ad37” value in assay [1] is “did not interfere with the binding”.

As to “Orosomucoid: sialylated, negatively charged glycoprotein”, the “Maximal inhibition of Ad37 binding in %” value in assay [1] (500 μM glycoprotein) amounted to 77%. In addition, the IC50 in assay [1] (setting [7]) stood at 75 µM.

B1: Glycophorin A: sialylated glycoprotein (protein, UniProt P02724 20-150, looked up)
Glycophorin-A: LSTTEVAMHTSTSSSVTKSYISSQTNDTHKRDTYAATPRAHEVSEISVRTVYPPEEETGERVQLAHHFSEPEITLIIFGVMAGVIGTILLISYGIRRLIKKSPSDVKPLPSPDTDVPLSSVEIENPETSDQ
Consider B1, for which the “Maximal inhibition of Ad37 binding in %” value in assay [1] (500 μM glycoprotein) turned out to be 45%. The IC50 in assay [1] (setting [7]) is > 500 µM.
